Experimental data taken from patent US11376252B2, “Multikinase inhibitors and uses in prostatic hyperplasia and urinary track diseases” (AIVIVA BIOPHARMA, INC., priority 2017, dated 2022).
Entries after “also recorded” stand apart in the source; their conditions may differ. Counter-ions that a name gives are not always drawn.

Tests used:
[1] = test system: testosterone (TE) and phenylephrine (PE) induced benign prostate hyperplasia in rats; assay: Testosterone (TE) and phenylephrine (PE) induced benign prostate hyperplasia in rats, intra-prostate injection (Example 1); type: in vivo, Male Wistar rats; settings: for glandular hyperplasia as compared to the untreated TE/PE induced prostates: TE/PE induced rats, intra-prostate injection, histology
Protocol: BPH is a true hyperplastic process. Histologic studies have documented an increase in cell number. A study was conducted, therefore, to determine the effects of test compounds and vehicle on testosterone (TE) and phenylephrine (PE) induced benign prostate hyperplasia in rats. Male Wistar rats were induced with testosterone (2 mg/kg) plus phenylephrine (5 mg/kg) administered daily by subcutaneous injection on days 5 through 32. Vehicle or test compounds (all at 1% w/w), nintedanib, sunitinib, lenvatinib, and 0.5% doxazosin mesylate, were administered by intra-prostate injection (0.4 ml) in dorsolateral and ventral lobes on days 1 and 18. Animals were euthanized on day 32. Body weights were determined and prostate glands were harvested. The experimental design is outlined in Table 1.
At necropsy, the ventral and dorsolateral lobes of the prostate were separated and then cut into halves. The left halves were fixed in 10% neutral buffered formalin, sectioned, and stained with Hematoxylin and Eosin (H&E). Histological changes in these sections were scored. Epithelial hyperplasia was recognized as an increase in epithelial cells within normal-appearing gland profiles, primarily reflected by stratification of epithelial cells and increased presence of epithelial tufting and papillary projections. A severity grade of 0 (not present) through 5 (severe) was assigned to each sample.

[2] = test system: suture induced fibrosis model in rabbits; assay: Suture induced fibrosis model in rabbits (cornea), topical administration (Example 4); type: in vivo; settings: 0.3% w/w topical, three times daily for 10 days, Day 11; for fibroplasia and/or collagen density (histological staining, Masson's trichrome): FIG. 8
Protocol: A study was conducted to determine the potential beneficial effects of topical administration of test compounds and vehicle in a suture induced fibrosis model in rabbits. Sutures were placed intrastromally, under a microscope, in the cornea of rabbits. In each eye, one 9-0 silk suture was placed, in a vertical position, temporal to the center of the cornea and a second suture was placed nasal to the corneal center. Each suture had two stromal incursions approximately 2 mm from the limbus. Test compounds having a certain spectrum of multikinase inhibition activities, or vehicle, were topically instilled (35 μL/eye) in the eyes three times daily for 10 days following surgery. The treatment groups include vehicle, nintedanib (0.3%, w/w), sorafenib (0.3%, w/w) and lenvatinib (0.3%, w/w). Six left eyes were used per treatment group.
During the in-life phase, gross ocular observations of very slight to moderate conjunctival congestion and swelling were similar among groups, including the vehicle control. The animals were sacrificed on Day 11 and eyes enucleated and dissected for histopathological evaluation.

[3] = test system: laser induced choroidal neovascularization; assay: Laser induced choroidal neovascularization in rat eyes (Example 5); type: in vivo; settings: Day 22, FIG. 9; for lesion sizes relative to vehicle (fluorescein angiography): topical eyedrop 1%, three times a day Days 2-21
Text: Increased expression of angiogenic factors, such as VEGF and bFGF, along with increased microvessel density, have been reported in benign prostatic hyperplasia, high grade prostate intraepithelial neoplasia and prostate cancer. […] In this example, the effect of local administration of multikinase inhibitors in a rat model of neovascularization was examined. New vessel growth is regulated by growth factor receptor signaling pathways, the functions of which broadly overlap among organs and tissues. In this study, effects of local administration of the multikinase inhibitors nintedanib and lenvatinib were examined by intravitreal injection or topical application to rat eyes following laser induced choroidal neovascularization. A 22-day study was conducted to determine the effects of test agents, positive control, or vehicle on the development of new vessels. On Day 1, laser treatments were performed on all animals using a 520 nm thermal laser to generate a total of three lesions per eye. On Days 2-21, bilateral topical administration of vehicle, 1% nintedanib, or 1% lenvatinib was performed three times a day. On Day 3, bilateral intravitreal injection of vehicle, 5 μg/eye of rat anti-VEGF antibody, 50 μg/eye of nintedanib, or 50 μg/eye of lenvatinib was performed in a second group of animals. On Day 22, fluorescein angiography was performed on all animals and lesion size/area was determined using image analysis software (ImageJ).

[4] = test system: testosterone and/or phenylephrine induced BPH in rats; assay: Post-induction study in testosterone and/or phenylephrine induced BPH in rats, intra-prostate injection (Example 2); type: in vivo, Male Wistar rats; settings: for mean prostate weight/100 g body weight compared to vehicle: TE+PE induced days 1-28; for epithelial hyperplasia score (0 not present through 5 severe), representative image: dorsolateral prostate, FIG. 6
Protocol: Morphologically, BPH is characterized by the formation of a new architecture through the proliferation of the epithelium in pre-existing ducts. Given that stromal cells serve important paracrine regulatory functions in epithelial cell homeostasis, late stage changes in stromal-epithelial interactions could provide insight into BPH progression. A second study was conducted to determine the therapeutic effects of test compounds and vehicle, post-induction in a protocol using testosterone and/or phenylephrine induced BPH in rats.
Male Wistar rats were induced with testosterone (2 mg/kg) plus phenylephrine (5 mg/kg) administered daily by subcutaneous injection on days 1 through 28. Vehicle or test compounds sorafenib (1% w/w), pirfenidone (2.5% w/w), and riociguat (1% w/w) were administered by intra-prostate injection (0.2 ml) in the dorsolateral lobe on days 15 and 29. Animals were euthanized on day 42. Body weights were determined. Prostate glands were harvested and weighed. The experimental design is outlined in Table 2.
At necropsy, the dorsolateral and ventral lobes of the prostate were separated and cut into halves. The left halves were fixed in 10% neutral buffered formalin, sectioned, and stained with Hematoxylin and Eosin (H&E). Epithelial hyperplasia was recognized as an increase in epithelial cells within normal appearing gland profiles, as reflected in the stratification of epithelial cells and increased presence of epithelial tufting and papillary projections. Stromal changes were examined microscopically. These changes included inflammation and tissue fibroplasia. Each section was given a severity score ranging from 0 (not present) through 5 (severe).

[5] = dorsolateral prostate, TE and PE induced, intra-prostate injection days 1 and 18, 1% w/w (doxazosin 0.5%), day 32, H&E, FIG. 1
[6] = ventral prostate, TE and PE induced, intra-prostate injection days 1 and 18, 1% w/w (doxazosin 0.5%), day 32, H&E, FIG. 2
[7] = intravitreal injection 50 μg/eye on Day 3
[8] = intra-prostate injection days 15 and 29, day 42, FIG. 5
[9] = TE+PE induced, intra-prostate injection days 15 and 29, day 42

Compound | glandular hyperplasia as compared to the untreated TE/PE induced prostates [1] | epithelial hyperplasia score (severity grade 0 not present through 5 severe), representative image [1, 5] | epithelial hyperplasia score (severity grade 0 not present through 5 severe), representative image [1, 6] | alpha SMA staining by immunohistochemical analysis relative to vehicle [2] | fibroplasia and/or collagen density (histological staining, Masson's trichrome) [2] | other results
COc1cc2nc(N3CCN(C(=O)C4COc5ccccc5O4)CC3)nc(N)c2cc1OC (stereo not drawn) [doxazosin, doxazosin mesylate] | demonstrated reduction of glandular hyperplasia | 3 | 3 |  |  | 
COc1cc2nccc(Oc3ccc(NC(=O)NC4CC4)c(Cl)c3)c2cc1C(N)=O [lenvatinib] | demonstrated reduction of glandular hyperplasia | 2 | 3 | significantly reduced alpha SMA staining | significantly reduced fibroplasia and/or collagen density | lesion sizes relative to vehicle-treated eyes (fluorescein angiography) [3, 7]: significantly reduced lesion sizes; lesion sizes relative to positive control, rat anti-VEGF (fluorescein angiography) ([3]; intravitreal injection 50 μg/eye on Day 3, anti-VEGF 5 μg/eye): significantly reduced lesion sizes; lesion sizes relative to vehicle (fluorescein angiography) [3]: reduced lesion sizes
COC(=O)c1ccc2c(c1)NC(=O)/C2=C(\Nc1ccc(N(C)C(=O)CN2CCN(C)CC2)cc1)c1ccccc1 [nintedanib] | demonstrated reduction of glandular hyperplasia | 3 | 3 | significantly reduced alpha SMA staining | significantly reduced fibroplasia and/or collagen density | lesion sizes relative to vehicle-treated eyes (fluorescein angiography) [3, 7]: significantly reduced lesion sizes; lesion sizes relative to vehicle (fluorescein angiography) [3]: reduced lesion sizes
Cc1ccc(=O)n(-c2ccccc2)c1 [pirfenidone] |  |  |  |  |  | mean prostate weight/100 g body weight compared to vehicle [4, 8]: did not show a reduction in mean prostate weight; epithelial hyperplasia score (0 not present through 5 severe), representative image [4, 9]: 1
COC(=O)N(C)c1c(N)nc(-c2nn(Cc3ccccc3F)c3ncccc23)nc1N [riociguat] |  |  |  |  |  | effect on prostate volume and histological changes in epithelial hyperplasia ([4]; TE induced rats, 1% w/w intra-prostate): showed an effect on prostate volume and histological changes in epithelial hyperplasia; mean prostate weight/100 g body weight compared to vehicle control ([4]; TE induction days 1-28, intra-prostate injection days 15 and 29, day 42, FIG. 5): reduced the mean prostate weight; epithelial hyperplasia score (0 not present through 5 severe), representative image ([4]; TE induced, intra-prostate injection days 15 and 29, day 42): 1
CNC(=O)c1cc(Oc2ccc(NC(=O)Nc3ccc(Cl)c(C(F)(F)F)c3)cc2)ccn1 [sorafenib] |  |  |  | no effect on alpha SMA | little or no effect | mean prostate weight/100 g body weight compared to vehicle [4, 8]: did not show a reduction in mean prostate weight; inhibition of benign prostate hyperplasia / therapeutic effect in the prostate ([4]; TE+PE induced rats, 1% w/w intra-prostate): not an effective inhibitor; also recorded: did not show any therapeutic effect; epithelial hyperplasia score (0 not present through 5 severe), representative image [4, 9]: 2
CCN(CC)CCNC(=O)c1c(C)[nH]c(/C=C2\C(=O)Nc3ccc(F)cc32)c1C [sunitinib] |  | 3 |  |  |  | epithelial hyperplasia score (severity grade 0 not present through 5 severe), representative image ([1]; 768 h): 3
